This passage reports inhibition results from ChEMBL document CHEMBL1135006, “Synthesis and biological evaluation of novel 2-(1H-imidazol-4-yl)cyclopropane carboxylic acids: key intermediates for H3 histamine receptor ligands” (Bioorg Med Chem Lett, 2002).

Histamine H3 receptor (Rattus norvegicus), sequence (Q9QYN8 whole entry, looked up): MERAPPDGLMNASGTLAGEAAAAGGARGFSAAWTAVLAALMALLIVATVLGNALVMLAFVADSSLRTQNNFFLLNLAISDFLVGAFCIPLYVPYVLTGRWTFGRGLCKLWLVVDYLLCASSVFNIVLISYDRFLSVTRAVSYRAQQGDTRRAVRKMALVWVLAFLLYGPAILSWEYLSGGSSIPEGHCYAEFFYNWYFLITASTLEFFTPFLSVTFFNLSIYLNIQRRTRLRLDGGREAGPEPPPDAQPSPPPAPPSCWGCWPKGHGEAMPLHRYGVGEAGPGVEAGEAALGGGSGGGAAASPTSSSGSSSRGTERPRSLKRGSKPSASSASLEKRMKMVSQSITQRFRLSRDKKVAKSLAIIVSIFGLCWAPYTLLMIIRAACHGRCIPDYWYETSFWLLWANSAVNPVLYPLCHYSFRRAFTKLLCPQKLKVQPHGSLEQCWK

The assay addresses Histamine H3 receptor (Rattus norvegicus) (UniProt Q9QYN8). The assay can be described thus: Inhibition of the specific binding of [3H](R)-alpha-methylhistamine ([3H]RMHA) to Histamine H3 receptor in rat brain membranes at 10e-8 M.
On to `O=C(O)C1C[C@@H]1c1c[nH]cn1` (single isomer, unassigned), for which the inhibition stood at 11.6%. With `C/C=C/CO` the figure was 10%; with `OC/C=C/c1ccccc1`, 33.5%. Take `C/C=C\CO`: the inhibition worked out at 3.7%. With `OC/C=C\c1ccccc1` the figure was 4.3%.
